Assay results from patent US7608640B2, “Glycine betaine and its use” (priority 2001, dated 2009).

Key:
[1] = system: venous thrombosis induced by stasis (lower vena cava ligature); test: Stasis-induced venous thrombosis, clot weight; assay type: in vivo, rat
Experimental: B/Stasis-induced Thrombosis A laparotomy was performed to open the lower vena cava, on which a ligature was placed at T0, followed by subcutaneous injection of glycine betaine at T0+2 hours, followed by withdrawal of the clot and blood samples at T0+6 hours. Male Wistar rats were used for these tests. They weighed between 200 and 250 grams. After an 8-day stabilisation period, the rats were subjected to fasting for 12 hours. They were then anaesthetised, glycine betaine was administered subcutaneously, and the mesentery (laser) or vena cava (stasis) was opened at the end of the experiments.

coagulation factors = test: Plasminogenesis, coagulation and anti Xa in the stasis-induced thrombosis model; assay type: in vivo, rat
Experimental: A laparotomy was performed to open the lower vena cava, on which a ligature was placed at T0, followed by subcutaneous injection of glycine betaine at T0+2 hours, followed by withdrawal of the clot and blood samples at T0+6 hours.

[2] = system: arterial thrombosis induced by laser beam in the mesenteric microcirculation of the rat; test: Laser-induced thrombosis in the mesenteric microcirculation; assay type: in vivo; settings: oral 50 mg/kg
[3] = system: platelet aggregations induced by ADP, collagen, epinephrine, adrenaline, thrombin, ristocetine, arachidonic acid; test: Human in vivo test, induced platelet aggregations in heavy smokers; settings: two heavy smokers, oral capsules 5 g/day during 7 days
Experimental: This example describes a human in vivo test. Two volunteers (with a weight of about 70-75 kg), considered as heavy smokers (smoking more than 10 cigarettes/day) have orally taken capsules (gastro soluble) containing 5 g anhydrous glycine betaine/day during 7 days. Before administration of the betaine, the aggregations induced by ADP, by collagen, by epinephrine, by adrenaline, by thrombin, by ristocetine and by arachidonic acid were determined. After one week of treatment, the same platelet aggregations were measured. It appeared from said tests that all the induced platelet aggregations were reduced for all said endogenous agonists of at least 30%. Better results are expected when using oral dosage form with controlled release, such as gastro insoluble, but entero soluble form.

[4] = system: platelet aggregation induced with ADP; test: Aggregation induced with ADP; assay type: in vivo, rat; settings: ADP 5 μM
Experimental: (§1) The aggregation is made in accordance to the methods of Cardinal & Flower. Pharmacol. Method. 1980, and to American Journal of Clinical Pathology, 1989; 92: 676-679, Sureney. J D. Whole Blood aggregometry. After a keeping period of 8 days, the rats are subjected to a fasting for 12 hours. Betaine is subcutaneously injected one hour before blood sampling. The rats are then anaesthetised with sodium Thiopental administered at a dose of 200 mg/Kg and the blood samples are taken by intracardiac puncture on a trisodium citrate solution (1 volume of solution at 3.8% citrate for 9 volumes of blood).
• This example evaluated aggregation induced with ADP. • Final ADP concentration 5 μM

bleeding time in rats = test: Induced haemorrhagic (bleeding) time, tail cut; assay type: in vivo, rat; settings: for B.T.C. (bleeding time caused): 5 mg/ml/kg; for Provoked haemorrhage: after 24 hours; for Induced haemorrhage: oral 50 mg/kg; for Bleeding time: rat, glycine betaine 5 mg/kg, acetylsalicylic acid 100 mg/kg, heparin 2 mg/kg
Experimental: Induced Haemorrahgic Time IHT
(E. Dejana. Bleeding time in rats. Thrombosis. Rech. 1982) Blood samples are made before the test. The tail of anaesthetised rat, is dipped for 5 minutes in a water bath at 37° C. so as to provoke a dilatation of the peripheral vessels which are removed and cut at the end, the chronometer being started. The IHT is defined as being the time period comprised between the cutting of end tail and the end of the haemorrhage or bleeding. The end of haemorrhage is defined as the time where the last drop of blood is removed from the tail and no other drop is seen for 180 seconds. […]

[5] = value taken for the deconvolution technique; cited from earlier work
[6] = system: induced haemorrhage in rats; test: Anti-haemorrahgic activity with aspirin or heparin; assay type: in vivo, rat; settings: glycine betaine 2-50 mg given with 100 mg aspirin or 2 mg heparin, versus aspirin or heparin alone
Experimental: This example tested anti-haemorrahgic activity using rats. Some rats received an active agent with haemorrahgic side effect, while other rats received said active agent together with a dose of betaine.
The following products were administered to rats for determining whether glycine betaine has an anti-haemorrahgic effect: • 100 mg aspirin per kg life body • 100 mg aspirin+50 mg glycine betaine per kg life body • 2 mg heparin • 2 mg heparin+50 mg glycine betaine • 2 mg heparin+10 mg glycine betaine • 2 mg heparin+2 mg glycine betaine

platelet aggregation = test: Whole blood platelet aggregation ex vivo (aggregometer); assay type: in vivo, rat; settings: for Amplitude (platelet aggregation induced ex vivo) / Velocity (platelet aggregation induced ex vivo): 5 mg/kg; for Amplitude (platelet aggregation) / Velocity (platelet aggregation): rat, after laser firings, glycine betaine 5 mg/kg, acetylsalicylic acid 100 mg/kg, heparin 2 mg/kg
Experimental: The aggregation is made in accordance to the methods of Cardinal & Flower. Pharmacol. Method. 1980, and to American Journal of Clinical Pathology, 1989; 92: 676-679, Sureney. J D. Whole Blood aggregometry. After a keeping period of 8 days, the rats are subjected to a fasting for 12 hours. […] The rats are then anaesthetised with sodium Thiopental administered at a dose of 200 mg/Kg and the blood samples are taken by intracardiac puncture on a trisodium citrate solution (1 volume of solution at 3.8% citrate for 9 volumes of blood).

[7] = system: platelet aggregation induced with collagen; test: Aggregation induced with collagen; assay type: in vivo, rat; settings: collagen 10 μgr/ml
Experimental: as §1
• This example evaluates aggregation induced with collagen. • Collagen concentration 10 μgr/ml

[8] = Group I: injected 1 hour before
[9] = Group II: injected 2 hours before
[10] = Group III: injected 3 hours before
[11] = Group IV: injected 4 hours before

Compound: C[N+](C)(C)CC(=O)O [Glycine betaine]
- Clot weight ([1]; 1 mg/kg s.c.): 3.1 ± 0.4 mg
- Clot weight ([1]; 2.5 mg/kg s.c.): 1.63 ± 0.76 mg
- Clot weight ([1]; 5 mg/kg s.c.): 0.76 ± 0.4 mg
- ACT (coagulation factors; 1 mg/kg): 29.1 ± 2.3 s
- Anti Xa (coagulation factors; 1 mg/kg): 0.08 ± 0.1 units/ml
- Fibrinogen (coagulation factors; 1 mg/kg): 2.63 ± 0.3 g/L
- Plasminogenesis (coagulation factors; 1 mg/kg): 2.44 ± 0.58%
- Quick time (coagulation factors; 1 mg/kg): 16.2 ± 1.2 s
- ACT (coagulation factors; 2.5 mg/kg): 31.2 ± 2.6 s
- Anti Xa (coagulation factors; 2.5 mg/kg): 0.14 ± 0.10 units/ml
- Fibrinogen (coagulation factors; 2.5 mg/kg): 2.2 ± 0.17 g/L
- Plasminogenesis (coagulation factors; 2.5 mg/kg): 2 ± 0.15%
- Quick time (coagulation factors; 2.5 mg/kg): 16.6 ± 0.7 s
- ACT (coagulation factors; 5 mg/kg): 33.5 ± 1.9 s
- Anti Xa (coagulation factors; 5 mg/kg): 0.35 ± 0.15 units/ml
- Fibrinogen (coagulation factors; 5 mg/kg): 2.32 ± 0.33 g/L
- Plasminogenesis (coagulation factors; 5 mg/kg): 1.66 ± 0.58%
- Quick time (coagulation factors; 5 mg/kg): 15.6 ± 0.4 s
- Number of emboles ([2]; 1 hour): 0 +/− 0
- Embolisation time ([2]; 48 hours): 2 ± 0 min
- Number of laser firing ([2]; 48 hours): 2.33 +/− 0.57
- Reduction of induced platelet aggregations (all agonists) [3]: at least 30%
- Amplitude ([4]; 2.5 mg/kg): 13 +/− 0.82 ohms
- Velocity ([4]; 2.5 mg/kg): 5.75 +/− 0.96 ohm/minute
- Amplitude ([4]; 5 mg/kg): 7.25 +/− 0.96 ohms
- Velocity ([4]; 5 mg/kg): 4.75 +/− 0.5 ohm/minute
- Amplitude ([4]; 10 mg/kg): 0 +/− 0 ohms
- Velocity ([4]; 10 mg/kg): 0 +/− 0 ohm/minute
- B.T.C. (bleeding time caused) (bleeding time in rats; Group I: injected 1 hour before the experiment): 105 ± 26.2 s
- B.T.C. (bleeding time caused) (bleeding time in rats; Group II: injected 2 hours before the experiment): 145 ± 15.52 s
- B.T.C. (bleeding time caused) (bleeding time in rats; Group III: injected 3 hours before the experiment): 115.5 ± 14.2 s
- B.T.C. (bleeding time caused) (bleeding time in rats; Group IV: injected 4 hours before the experiment): 120 ± 10.13 s
- Provoked Haemorrhage time (bleeding time in rats; 10 mg/kg subcutaneous): 105 s
- Provoked haemorrhage (bleeding time in rats; 10 mg/kg subcutaneous): 114 ± 12.76 s
- Provoked haemorrhage (bleeding time in rats; 20 mg/kg subcutaneous): 110 ± 13.22 s
- Provoked Haemorrhage time (bleeding time in rats; 30 mg/kg subcutaneous): 112 s
- Provoked Haemorrhage time (bleeding time in rats; 50 mg/kg subcutaneous): 115 s
- Induced haemorrhage (bleeding time in rats; 1 hour): 120 ± 5 s
- Induced haemorrhage (bleeding time in rats; 6 hours): 111 ± 3.6 s
- Induced haemorrhage (bleeding time in rats; 24 hours): 113.33 ± 18.92 s
- Induced haemorrhage (bleeding time in rats; 48 hours): 109 ± 8.54 s
- Bleeding time (bleeding time in rats): 95 ± 5 s
- Elimination half life [5]: 7.8 h
- Bleeding time after induced haemorrhage [6]: bleeding time was reduced
- Amplitude (platelet aggregation induced ex vivo) (platelet aggregation; [8]): 11.33 ± 3.08 Ohms
- Velocity (platelet aggregation induced ex vivo) (platelet aggregation; [8]): 8.2 ± 0.2 ohm/minute
- Amplitude (platelet aggregation induced ex vivo) (platelet aggregation; [9]): 13.2 ± 3.5 Ohms
- Velocity (platelet aggregation induced ex vivo) (platelet aggregation; [9]): 9.3 ± 1.8 ohm/minute
- Amplitude (platelet aggregation induced ex vivo) (platelet aggregation; [10]): 12.7 ± 4.1 Ohms
- Velocity (platelet aggregation induced ex vivo) (platelet aggregation; [10]): 8.7 ± 1.3 ohm/minute
- Amplitude (platelet aggregation induced ex vivo) (platelet aggregation; [11]): 13 ± 2.8 Ohms
- Velocity (platelet aggregation induced ex vivo) (platelet aggregation; [11]): 8.7 ± 1.15 ohm/minute
- Amplitude (platelet aggregation) (platelet aggregation): 0.66 ± 1.15 ohms
- Velocity (platelet aggregation) (platelet aggregation): 1.66 ± 1.15 ohms/min
- Amplitude ([7]; 2.5 mg/kg): 13.75 +/− 0.96 ohms
- Velocity ([7]; 2.5 mg/kg): 9.25 +/− 2.63 ohm/minute
- Amplitude ([7]; 5 mg/kg): 5.5 +/− 1.29 ohms
- Velocity ([7]; 5 mg/kg): 4.5 +/− 1 ohm/minute
- Amplitude ([7]; 10 mg/kg): 1.5 +/− 1.29 ohms
- Velocity ([7]; 10 mg/kg): 2 +/− 0.82 ohm/minute

Compound: Heparin
- Bleeding time (bleeding time in rats): 313.33 ± 20 s
- Amplitude (platelet aggregation) (platelet aggregation): 4.33 ± 0.57 ohms
- Velocity (platelet aggregation) (platelet aggregation): 2.66 ± 0.50 ohms/min
